Test results published in US9045461B2, “Phenyl-heteroaryl derivatives and methods of use thereof” (TransTech Pharma, LLC, priority 2010, dated 2015).
Structures can show the parent of a compound that is named as a salt.

What was measured:
sRAGE binding to S100b = target: T1, sRAGE binding to S100b (Homo sapiens, UniProt Q15109); assay: RAGE binding assay (ELISA), S100b as the RAGE ligand; conditions: compounds tested in hydrochloride salt form, concentration at which 50% signal has been inhibited
T1 construct: extracellular domain can be isolated by proteolysis of RAGE to generate soluble RAGE (sRAGE) comprised of the V and C domains
Outline: (§1)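 Ligand (500 ng/well) coated in carbonate buffer pH 9.8 overnight at 4° C and blocked with 1% BSA; test compound (10-100 μM in water, 4% DMSO co-solvent) incubated with sRAGE (6 nM FAC) 1 h at 37° C. Bound sRAGE detected by anti-sRAGE/biotin-anti-mouse/AP-streptavidin with pNPP, A405. IC50 = 50% signal inhibition.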

[1] = target: T2, sRAGE binding to β-amyloid (Homo sapiens, UniProt Q15109); assay: RAGE binding assay (ELISA), β-amyloid as the RAGE ligand; conditions: compounds tested in hydrochloride salt form, concentration at which 50% signal has been inhibited
T2 construct: extracellular domain can be isolated by proteolysis of RAGE to generate soluble RAGE (sRAGE) comprised of the V and C domains
Outline: as §1

T1 sequence (Q15109 23-342 limits assumed): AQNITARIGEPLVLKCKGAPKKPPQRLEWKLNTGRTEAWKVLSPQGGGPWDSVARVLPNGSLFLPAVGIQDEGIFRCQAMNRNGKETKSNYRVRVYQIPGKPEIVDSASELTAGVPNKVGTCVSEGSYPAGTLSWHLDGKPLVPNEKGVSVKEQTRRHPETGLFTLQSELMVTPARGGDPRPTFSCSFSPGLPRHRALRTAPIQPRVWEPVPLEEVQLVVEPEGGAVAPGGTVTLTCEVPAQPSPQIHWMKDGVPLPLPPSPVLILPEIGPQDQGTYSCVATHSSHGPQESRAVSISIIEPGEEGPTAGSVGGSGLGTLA
T2 sequence (Q15109 23-342 limits assumed): as above

Row | SMILES | IC50 (sRAGE binding to S100b) [nM] | IC50 [1] [nM]
1 | CCCCc1nnc(OC2CCN(C)CC2)c(C(F)(F)F)c1-c1ccc(OC2CCCCC2)cc1 [Example 58, 3-butyl-4-(4-cyclohexyloxy-phenyl)-6-(1-methyl-piperidin-4-yloxy)-5-trifluoromethyl-pyridazine dihydrochloride] | 740 | 760
2 | CCCCc1nnc(C(=O)NCC2(F)CCN(C)CC2)cc1-c1ccc(OC2CCCCC2)cc1 [Example 109, 6-Butyl-5-(4-cyclohexyloxy-phenyl)-pyridazine-3-carboxylic acid (4-fluoro-1-methyl-piperidin-4-ylmethyl)-amide dihydrochloride] | 5840 | 5830
3 | CCCCc1nnc(OC2CCN(C)CC2)cc1-c1ccc(OC2CCCCC2)c(-c2nnn(C)n2)c1 [Example 79, 3-Butyl-4-[4-cyclohexyloxy-3-(2-methyl-2H-tetrazol-5-yl)-phenyl]-6-(1-methyl-piperidin-4-yloxy)-pyridazine dihydrochloride] | 1470 | 1490
4 | CCCCc1nnc(OC2CCN(C)CC2)cc1-c1ccc(OC2CCCCC2)c(N2CCCS2(=O)=O)c1 [Example 75, 3-Butyl-4-[4-cyclohexyloxy-3-(1,1-dioxo-1lambda*6*-isothiazolidin-2-yl)-phenyl]-6-(1-methyl-piperidin-4-yloxy)-pyridazine dihydrochloride] | 2190 | 2850
5 | CCCCc1nnc(OCC2CN(C)CCC2(F)F)cc1-c1ccc(OC2CCCCC2)cc1 (centres unmarked) [Example 39, 3-Butyl-4-(4-cyclohexyloxy-phenyl)-6-(4,4-difluoro-1-methyl-piperidin-3-ylmethoxy)-pyridazine dihydrochloride] | 1220 | 1500
6 | CCCCc1nnc(OC2CCN(C)CC2)cc1-c1ccc(OC2CCCCC2)c(N(CC(C)C)S(C)(=O)=O)c1 [Example 64, N-{5-[3-butyl-6-(1-methyl-piperidin-4-yloxy)-pyridazin-4-yl]-2-cyclohexyloxy-phenyl}-N-isobutyl-methanesulfonamide dihydrochloride] | 880 | 840
7 | CCCCc1nnc(C(=O)N[C@@H]2CN3CCC2CC3)cc1-c1ccc(OCc2ccccc2)cc1 [Example 82, 5-(4-Benzyloxy-phenyl)-6-butyl-pyridazine-3-carboxylic acid (S)-(1-aza-bicyclo[2.2.2]oct-3-yl)-amide dihydrochloride] | 1270 | 1290
8 | CCCCc1nnc(OCC2CCN(C)C2)cc1-c1ccc(OCc2ccccc2)cc1 (centres unmarked) [Example 10, 4-(4-Benzyloxy-phenyl)-3-butyl-6-(1-methyl-pyrrolidin-3-ylmethoxy)-pyridazine dihydrochloride] | 1520 | 1630
9 | CCCCc1nnc(OC[C@H]2CN(C)CC[C@@H]2O)cc1-c1ccc(OC2CCCCC2)cc1 (racemic) [Example 47, (±)-trans-3-[6-Butyl-5-(4-cyclohexyloxy-phenyl)-pyridazin-3-yloxymethyl]-1-methyl-piperidin-4-ol dihydrochloride] | 2930 | 2500
10 | CCCCc1nnc(O[C@H]2CC3C[C@@H](O)C(C2)N3C)cc1-c1ccc(OC2CCCCC2)cc1 (stereo partly drawn) [Example 31, (3S,6R)-3-[6-Butyl-5-(4-cyclohexyloxy-phenyl)-pyridazin-3-yloxy]-8-methyl-8-aza-bicyclo[3.2.1]octan-6-ol dihydrochloride] | 890 | 1180

The remaining lines, values ahead:

Row | IC50 (sRAGE binding to S100b) [nM] | IC50 [1] [nM] | SMILES
11 | 1370 | 1540 | CCCCc1nnc(OC[C@H]2CCN(C)C[C@@H]2O)cc1-c1ccc(OC2CCCCC2)cc1 (racemic) [Example 25, (±)-trans-4-[6-Butyl-5-(4-cyclohexyloxy-phenyl)-pyridazin-3-yloxymethyl]-1-methyl-piperidin-3-ol dihydrochloride]
12 | 1740 | 1040 | CCCCc1nnc(OC2CCN(C)CC2)cc1-c1ccc(OC2CCCCC2)c(OC)c1 [Example 73, 3-Butyl-4-(4-cyclohexyloxy-3-methoxy-phenyl)-6-(1-methyl-piperidin-4-yloxy)-pyridazine dihydrochloride]
13 | 2640 | 2900 | CCCCc1nnc(OC[C@H]2CCN(C)C[C@H]2O)cc1-c1ccc(OC2CCCCC2)cc1 (racemic) [Example 24, (±)-cis-4-[6-Butyl-5-(4-cyclohexyloxy-phenyl)-pyridazin-3-yloxymethyl]-1-methyl-piperidin-3-ol dihydrochloride]
14 | 1690 | 1200 | CCCCc1nnc(OC2CCN(C)CC2)cc1-c1ccc(OC2CCCCC2)c(-c2cnoc2)c1 [Example 72, 3-Butyl-4-(4-cyclohexyloxy-3-isoxazol-4-yl-phenyl)-6-(1-methyl-piperidin-4-yloxy)-pyridazine dihydrochloride]
15 | 2730 | 2010 | CCCCc1nnc(C(=O)NCC2(OC)CCN(C)CC2)cc1-c1ccc(OC2CCCCC2)cc1 [Example 89, 6-Butyl-5-(4-cyclohexyloxy-phenyl)-pyridazine-3-carboxylic acid (4-methoxy-1-methyl-piperidin-4-ylmethyl)-amide dihydrochloride]
16 | 2630 | 1480 | CCCCc1nnc(OCC[C@@H]2CCCCN2C)cc1-c1ccc(OC2CCCCC2)cc1 [Example 33, 3-butyl-4-(4-cyclohexyloxy-phenyl)-6-[2-((S)-1-methyl-piperidin-2-yl)-ethoxy]-pyridazine dihydrochloride]
17 | 5740 | 3230 | CCCCc1nnc(OCC2(O)CCN(C)CC2)cc1-c1ccc(OCc2ccccc2)cc1 [Example 11, 4-[5-(4-Benzyloxy-phenyl)-6-butyl-pyridazin-3-yloxymethyl]-1-methyl-piperidin-4-ol dihydrochloride]
18 | 3650 | 5450 | CCCCc1nnc(OC2CCN(C)CC2)cc1-c1ccc(OCC2CCOCC2)cc1 [Example 54, 3-butyl-6-(1-methyl-piperidin-4-yloxy)-4-[4-(tetrahydro-pyran-4-ylmethoxy)-phenyl]-pyridazine dihydrochloride]
19 | 830 | 600 | CCCCc1nnc(OC2CCN(CCC3OCCCO3)CC2)cc1-c1ccc(OC2CCCCC2)cc1 [Example 18, 3-Butyl-4-(4-cyclohexyloxy-phenyl)-6-[1-(2-[1,3]dioxan-2-yl-ethyl)-piperidin-4-yloxy]-pyridazine dihydrochloride]
20 | 780 | 1110 | CCCCc1nnc(OC2CCN(CCOC)CC2)cc1-c1ccc(OC2CCCCC2)cc1 [Example 23, 3-Butyl-4-(4-cyclohexyloxy-phenyl)-6-[1-(2-methoxy-ethyl)-piperidin-4-yloxy]-pyridazine dihydrochloride]
21 | 1350 | 1250 | CCCCc1nnc(OC[C@H]2CN(C)CC[C@@H]2OC)cc1-c1ccc(OC2CCCCC2)cc1 (racemic) [Example 46, (±)-trans-3-Butyl-4-(4-cyclohexyloxy-phenyl)-6-(4-methoxy-1-methyl-piperidin-3-ylmethoxy)-pyridazine dihydrochloride]
22 | 2070 | 6780 | CCCCc1nnc(OC2CCN(C)CC2)cc1-c1ccc(OC2CCCCC2)c(C2=NC(C)(C)CO2)c1 [Example 76, 3-Butyl-4-[4-cyclohexyloxy-3-(4,4-dimethyl-4,5-dihydro-oxazol-2-yl)-phenyl]-6-(1-methyl-piperidin-4-yloxy)-pyridazine]
